The values below come from EP0306698A1, “Condensed diazepinones, processes for their preparation, and medicaments containing these compounds” (Dr. Karl Thomae GmbH, priority 1987, dated 1989).

The target of series [1] is T1, muscarinischen Rezeptoren (Herz) (Rattus norvegicus, UniProt P10980).
T1 construct: Das Gesamtherz wurde mit einer Schere zerkleinert; Alle Organe wurden abschließend in einem Potter homogenisiert; from tissue; host or cells: rat whole heart homogenate
T1 sequence (P10980 1-466): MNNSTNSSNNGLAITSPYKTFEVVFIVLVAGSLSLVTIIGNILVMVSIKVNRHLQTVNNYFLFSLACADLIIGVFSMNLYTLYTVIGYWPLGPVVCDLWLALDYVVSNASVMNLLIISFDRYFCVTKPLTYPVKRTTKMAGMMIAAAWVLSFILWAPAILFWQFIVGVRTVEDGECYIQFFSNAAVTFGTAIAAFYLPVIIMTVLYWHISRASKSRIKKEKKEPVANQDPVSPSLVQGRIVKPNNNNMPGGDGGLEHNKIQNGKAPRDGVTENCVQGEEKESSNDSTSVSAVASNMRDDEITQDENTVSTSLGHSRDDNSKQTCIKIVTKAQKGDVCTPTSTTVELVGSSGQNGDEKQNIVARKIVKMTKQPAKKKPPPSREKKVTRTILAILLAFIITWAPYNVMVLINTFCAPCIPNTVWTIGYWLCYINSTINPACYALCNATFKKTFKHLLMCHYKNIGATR
The series is described as follows: biochemical. The class given is binding, Ratte. The settings on record: whole heart homogenate 1:400, 0,3 nmolar 3H-NMS, 30°C, 45 min; read-out: Rezeptor-Bindungs-Tests -log IC50 Herz (converted). The source says:
Als Organspender dienten männliche Sprague-Dawley-Ratten mit 180-220 g Körpergewicht. Nach Entnahme von Herz und Submandibularis wurden alle weiteren Schritte in eiskaltem Hepes-HCI-Puffer (pH 7,4; 100 m molar NaCI, 10 m molar MgCI2) vorgenommen. Das Gesamtherz wurde mit einer Schere zerkleinert. Alle Organe wurden abschließend in einem Potter homogenisiert.
Für den Bindungstest wurden die Organhomogenate in folgender Weise verdünnt: • Gesamtherz 1:400 • Submandibularis 1:400
Die Inkubation der Organhomogenate erfolgte bei einer bestimmten Konzentration des Radioliganden und einer Konzentrationsreihe der nichtradioaktiven Testsubstanzen im Eppendorf-Zentrifugenröhrchen bei 30°C. Die Inkubationsdauer betrug 45 Minuten. Als Radioligand wurde 0,3 nmolar ^3H-N-Methylscopolamin (^3H-NMS) verwendet. Die Inkubation wurde durch Zugabe von eiskaltem Puffer mit nachfolgender Vakuumfiltration beendet. Die Filter wurden mit kaltem Puffer gespült und ihre Radioaktivität bestimmt. Sie repräsentiert die Summe von spezifischer und unspezifischer Bindung von ^3H-NMS. Der Anteil der unspezifischen Bindung wurde definiert als jene Radioaktivität die in Anwesenheit von 1 u. molar Quinciidinylbenzilat gebunden wurde. Es wurden immer Vierfachbestimmungen vorgenommen. Die ICso-Werte der nicht markierten Testsubstanzen wurden graphisch bestimmt. Sie repräsentieren jene Konzentration der Testsubstanz, bei welcher die spezifische Bindung von ^3H-NMS an die muscarinischen Rezeptoren in den verschiedenen Organen um 50 % gehemmt wurde.

For another series, the system named is M2. The series is described as follows: M2 activity in the rat: inhibition of bradycardia induced by vagus stimulation. The class given is in vivo, Ratte. The note with it: i.v.; dose reducing vagal bradycardia by 50%; 5 min after injection. Here is the method:
(§1) Die angewandte Methode wurde von Hammer und Giachetti (Life Sciences 31, 2991-2998 (1982)) beschrieben. 5 Minuten nach intravenöser Injektion steigender Dosen der Substanz wurden entweder der rechte Vagus elektrisch stimuliert (Frequenz: 25 Hz; Pulsbreite: 2ms; Reizdauer: 30s; Voltzahl: supramaximal) oder 0,3 mg/kg McN-A-343 in männliche THOM-Ratten intravenös injiziert. Die durch Vagusstimulation hervorgerufene Bradykardie und der durch McN-A-343 verursachte Blutdruckanstieg wurden bestimmt. Die Dosis der Substanzen, die entweder die vagale Bradykardie (M2) oder den Blutdruckanstieg (Mi) um 50% verminderte, wurde graphisch ermittelt. Ergebnisse siehe Tabelle II.

The subject of a further series is M1. In words: M1 activity in the rat: inhibition of blood pressure rise caused by McN-A-343. The note with it: i.v.; dose reducing McN-A-343 (0,3 mg/kg) blood pressure rise by 50%; 5 min. The class given is in vivo, Ratte. How it is done: as §1
The test system of a further series is Speichelsekretion. The series is described as follows: Inhibition of pilocarpine-induced salivation in the rat. The class given is in vivo, Ratte. The note with it: for ED50: Rattus norvegicus, iv, dose reducing saliva volume by 50%, pilocarpine 2 mg/kg s.c., read-out: Speichelsekretionshemmung (Ratte) ED50; for Verhältnis Speichelsekretionshemmung zu M2-Aktivität: ratio of ED50 salivation inhibition to ED50 M2 activity, rat. How it is done:
Nach Lavy und Mulder (Arch. int. Pharmacodyn. 178, 437-445, (1969)) erhielten mit 1,2 g/kg Urethan narkotisierte männliche THOM-Ratten steigende Dosen der Substanz i.v.. Die Speichelsekretion wurde durch s.c. Gabe von 2 mg/kg Pilocarpin ausgelöst. Der Speichel wurde mit Fließpapier aufgesaugt, die von ihm eingenommene Fläche alle 5 Minuten planimetrisch bestimmt. Die Dosis der Substanz, die das Speichelvolumen um 50% verminderte, wurde graphisch ermittelt. Ergebnisse siehe Tabelle 11.

Series [2] addresses T2, muskarinischen Rezeptoren (Atrium) (Rattus norvegicus, UniProt P10980).
T2 construct: wurden die Tiere getötet, das Herz, die Bronchien und die Tränendrüsen entnommen; from tissue; host or cells: rat heart (atrium, ventricle), in vivo labelling with 3H-NMS
T2 sequence (P10980 1-466): T1 sequence (P10980 1-466)
In words: Receptor binding test in vivo (3H-NMS), heart atrium. Also on record: species or system Ratten. The note with it: rat, iv, 0.5 h; read-out: ID50 Herz Atrium. The source says: Für diese Experimente wurden weibliche Ratten mit einem Körpergewicht von ca. 200 g verwendet. Vor Versuchsbeginn wurden die Tiere mit einer Dosis von 1,25 g/kg Urethan narkotisiert. Die Tiere erhielten jeweils die vorgesehene Dosis der Prüfsubstanz durch i.v. Injektion. […] Nach weiteren 15 Minuten wurden die Tiere getötet, das Herz, die Bronchien und die Tränendrüsen entnommen. Diese Organe wurden in Soluene R aufgelöst und die Radioaktivität bestimmt. Diese Messwerte wurden als Totalbindung angenommen. […] Aus diesen Versuchen wurden für die einzelnen Organe IDso-Werte ermittelt. Die IDso-Werte sind Dosen der Prüfsubstanzen, die 50% der spezifischen Bindung von ^3H-NMS an die muskarinischen Rezeptoren der jeweiligen Organe hemmten.

The test system of series [3] is Acetylcholinwirkung auf Herzfrequenz. In words: Inhibition of the acetylcholine effect on heart rate. The note with it: Cavia porcellus, 5 min; anaesthetised guinea pig, acetylcholine 5 min after test substance, heart rate. It is filed as in vivo, Meerschweinchen. An excerpt: (§2) Dabei wurde die Herzfrequenz durch extrakorporale Ableitung des EKG, der Ausatemwiderstand nach Konzett-Rößler und die Kontraktion […] an den untersuchten Organen wurden Dosis-Wirkungskurven aufgenommen und daraus -log EDso-Werte bestimmt. Ergebnisse siehe Tabelle V.

Series [4] deals with Acetylcholinwirkung auf Bronchien. The series is described as follows: Inhibition of the acetylcholine effect on bronchi. The class given is in vivo, Meerschweinchen. The note with it: Cavia porcellus, 5 min; anaesthetised guinea pig, acetylcholine 5 min after test substance, expiratory resistance; read-out: -log ED50 Bronchien (converted).
From the text: as §2

For series [5], the system named is Acetylcholinwirkung auf Blase. In words: Inhibition of the acetylcholine effect on bladder. The class given is in vivo, Meerschweinchen. The settings on record: Cavia porcellus, 5 min; anaesthetised guinea pig, acetylcholine 5 min after test substance, bladder contraction; read-out: -log ED50 Blase (converted).
From the text: as §2

The next series is described as follows: Solubility in water. The class given is physicochemical. The settings on record: for Löslichkeit in Wasser: result in words; for solubility: water, read-out: Löslichkeit in Wasser.
Series [6] deals with muskarinischen Rezeptoren (Tränendrüsen) (Rattus norvegicus, UniProt P08483). In words: in vivo. The settings on record: iv, 0.5 h, read-out: ID50 Tränendrüsen.
Chain of muskarinischen Rezeptoren (Tränendrüsen) (P08483 whole entry): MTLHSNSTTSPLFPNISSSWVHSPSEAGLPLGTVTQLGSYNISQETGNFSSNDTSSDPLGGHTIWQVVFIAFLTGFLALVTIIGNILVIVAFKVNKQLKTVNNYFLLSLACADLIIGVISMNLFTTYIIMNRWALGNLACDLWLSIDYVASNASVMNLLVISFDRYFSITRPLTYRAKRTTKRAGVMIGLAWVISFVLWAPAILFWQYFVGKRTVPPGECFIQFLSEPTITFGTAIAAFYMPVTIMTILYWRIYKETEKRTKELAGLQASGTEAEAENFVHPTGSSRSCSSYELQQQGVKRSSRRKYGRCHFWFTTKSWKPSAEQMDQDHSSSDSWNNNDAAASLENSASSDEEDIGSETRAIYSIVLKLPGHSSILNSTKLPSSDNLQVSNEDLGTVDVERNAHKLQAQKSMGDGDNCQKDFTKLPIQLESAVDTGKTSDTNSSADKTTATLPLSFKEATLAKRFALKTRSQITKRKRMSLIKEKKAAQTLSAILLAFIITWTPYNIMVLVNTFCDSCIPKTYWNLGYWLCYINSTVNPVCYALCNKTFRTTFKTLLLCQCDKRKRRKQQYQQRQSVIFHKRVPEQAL

Structures are written as SMILES. Where a name gives a salt, the structure may show the parent alone. Read-outs that look alike come from different tables or passages of the source.

The term IC50 denotes the concentration that inhibits the measured activity by half.

As to `O=C1Nc2cccnc2N(C(=O)N2CCCC(CCCN3CCCCC3)C2)c2ccccc21` (stereo not drawn) [A, 5,11-Dihydro-11-[[3-[3-(1-piperidinyl)propyl]-1-piperidinyl]carbonyl]-6H-pyrido[2,3-b][1,4]-benzodiazepin-6-on], the IC50 in [1] is 2 nM. The “M2-Aktivität (Ratte) ED50” value in the series on M2 is reported as 6,9 µg/kg. In addition, the “M1-Aktivität (Ratte) ED50” value with M1 amounted to 49 µg/kg. Besides, the ED50 is 0.035 mg/kg in the series on Speichelsekretion; 0.01 mg/kg in series [2]; 0.0871 µmol/kg in [3]; 0.117 µmol/kg in [4]; 1.35 µmol/kg in [5]; 0.2 mg/kg in series [6]. The “Verhältnis Speichelsekretionshemmung zu M2-Aktivität” value with Speichelsekretion was determined as 5. In the series “Solubility in water” (methanesulfonate salt), the “Löslichkeit in Wasser” value is reported as “leicht löslich”. Besides, the values for the solubility in the series “Solubility in water” (hydrochloride salt) and in the series “Solubility in water” (salt with N-Cyclohexylsulfamidsäure) were about 2000 µg/mL and about 10000 µg/mL, respectively.
For the compound `CN1CCN(CC(=O)N2c3ccccc3C(=O)Nc3cccnc32)CC1` [Y, 5,11-Dihydro-11-[(4-methyl-1-piperazinyl)acetyl]-6H-pyrido[2.3-b][1,4]benzodiazepin-6-on, reference compound], the ED50 is 0.084 mg/kg in the series on Speichelsekretion, 1.41 µmol/kg in series [3], 0.269 µmol/kg in series [4] and 4.37 µmol/kg in series [5].
For `CN(CCC1CCCN(C(=O)N2c3ccccc3C(=O)Nc3cccnc32)C1)C1CCCC1` (stereo not drawn) [E, 11-[[3-[2-[(Cyclopentyl)methylamino]ethyl]-1-piperidinyl]carbonyl]-5,11-dihydro-6H-pyrido[2,3-b]-[1,4]-benzodiazepin-6-on-hydrochlorid], the IC50 in series [1] is 3.02 nM. In addition, the ED50 in series [3] is 0.0813 µmol/kg; in [4], 0.0977 µmol/kg; in series [5], 0.891 µmol/kg.
As to `Cl.O=C1Nc2cccnc2N(C(=O)N2CCCC(CCCN3CCCC3)C2)c2ccccc21` (stereo not drawn) [B, 5,11-Dihydro-11-[[3-[3-(1-pyrrolidinyl)propyl]-1-piperidinyl]carbonyl]-6H-pyrido[2,3-b][1,4]-benzodiazepin-6-on-hydrochlorid], the IC50 in series [1] was 10 nM. The figures for the ED50 in [3], in [4] and in series [5] were 0.0661 µmol/kg, 0.0871 µmol/kg and 0.692 µmol/kg, respectively. Moreover, the solubility in “Solubility in water” (hydrochloride salt) was about 3000 µg/mL.
Regarding `CCN(CC)CCCCC1CCCCN1C(=O)N1c2ccccc2C(=O)Nc2cccnc21` (stereo not drawn) [Beispiel 4, 11-[[2-[4-(Diethyiamino)butyl]-1-piperidinyl]carbonyl]-5,11-dihydro-6H-pyrido[2,3-b][1,4]benzodiazepin-6-on], the “Löslichkeit in Wasser” value in “Solubility in water” (dihydrochloride) was “wasserlösliche”.
Consider `O=C1Nc2cccnc2N(C(=O)N2CCCC(CCN3CCCCCC3)C2)c2ccccc21` (stereo not drawn) [F, 5,11-Dihydro-11-[[3-[2-(hexahydro-1H-1-azepinyl)ethyl]-1-piperidinyl]carbonyl]-6H-pyrido[23-b]-[1,4]benzodiazepin-6-on-hydrochlorid], for which, in [1], the IC50 is 3.02 nM. Moreover, the values for the ED50 in [3], in series [4] and in [5] were 0.0162 µmol/kg, 0.0398 µmol/kg and 0.38 µmol/kg, respectively.
In the case of `O=C1Nc2cccnc2N(C(=O)N2CCCC(CCN3CCCC3)C2)c2ccccc21` (stereo not drawn) [D, 5,11-Dihydro-11-[[3-(2-(1-pyrrolidinyl)ethyl]-1-piperidinyl]carbonyl]-6H-pyrido[2,3-b][1,4]-benzodiazepin-6-on-hydrochlorid], the IC50 in series [1] was 6.03 nM. For the same compound, the ED50 is 0.0479 µmol/kg in series [3], 0.0324 µmol/kg in series [4] and 0.708 µmol/kg in [5].
For `O=C1Nc2ccccc2N(C(=O)N2CCCC(CCN3CCCCC3)C2)c2ncccc21` (stereo not drawn) [G, 6,11-Dihydro-11-[[3-[2-(1-piperidinyl)ethyl]-1-piperidinyl]carbonyl]-5H-pyrido[23-b][1,5]-benzodiazepin-5-on], the IC50 in series [1] is 3.98 nM. In the series on M2, the “M2-Aktivität (Ratte) ED50” value is given as 8,13 µg/kg. Further, the “M1-Aktivität (Ratte) ED50” value in the series with M1 is listed as 7,16 µg/kg. Moreover, the ED50 in the series on Speichelsekretion was 0.00683 mg/kg; in [3] it was 0.0148 µmol/kg; in [4], 0.0263 µmol/kg; in [5] it was 0.302 µmol/kg. In addition, the “Verhältnis Speichelsekretionshemmung zu M2-Aktivität” value in the series on Speichelsekretion is listed as 20,00.
Take `CS(=O)(=O)O.O=C1Nc2cccnc2N(C(=O)N2CCCC(CCN3CCCCC3)C2)c2ccccc21` (stereo not drawn) [C, 5,11-Dihydro-11-[[3-[2-(1-piperidinyl)ethyl]-1-piperidinyl]carbonyl]-6H-pyrido[2,3-b][1,4]-benzodiazepin-6-on-methansulfonat]: in series [1], the IC50 was 3.02 nM. Further, the “M2-Aktivität (Ratte) ED50” value with M2 is listed as 7,6 µg/kg. Also, the “M1-Aktivität (Ratte) ED50” value in the series with M1 turned out to be 39 µg/kg. Besides, the ED50 in the series on Speichelsekretion is 0.058 mg/kg; in series [3] it was 0.0427 µmol/kg; in series [4], 0.0417 µmol/kg; in series [5], 0.355 µmol/kg. The “Verhältnis Speichelsekretionshemmung zu M2-Aktivität” value in the series with Speichelsekretion is listed as 7,6.
